Results on one molecule are retold here after patent publication US10441787B2, “Neuromodulation device” (GALVANI BIOE[…], priority 2015, dated 2019).

The test system of this assay is guinea pig airway smooth muscle tone. In words: In-vivo model of baseline airway smooth muscle tone. Also on record: dose or concentration left out as unconfirmed. The conditions noted are these: anesthetized guinea pigs; atropine delivered selectively to the trachea via Krebs buffer perfusion; isometric tension of tracheal rings 6 and 7. The text has this: FIG. 10: Schematic illustration of the method for assessing vagally-mediated baseline airay smooth muscle tone in anesthetized guinea pigs. (As described in, Mazzone and Canning, Curr. Protoc. Pharmacol. 2002. May 1; Chapter 5: Unit 5.26.)
Methods for studying vagally-mediated bronchospasm in anesthetized guinea pigs have been described in detail elsewhere (Mazzone and Canning, Curr Protoc Pharmacol. 2002 May 1; Chapter 5:Unit 5.26; Auton Neurosci. 2002 Aug. 30; 99(2):91-101) and shown in FIG. 10. Guinea pigs are anesthetized with urethane (1.5 g/kg ip). The trachea and vagus nerves are visualized by a midline incision in the neck. The trachea is cannulated and connected to a constant volume ventilator (6 mL/kg body weight). The animals are then paralyzed with succinylcholine (2.5 mg/kg sc). An artery and vein are cannulated to monitor cardiovascular parameters and for drug delivery. The vagus nerves are placed on bipolar electrodes. […] Bronchospasm is recorded as a percentage increase in pulmonary inflation pressure.
Using the method illustrated in FIG. 10, the portion of the trachea where isometric tension was measured (rings 6 and 7 caudal to the larynx) was perfused with warmed (37° C.), oxygenated Krebs buffer, which was used for selective delivery of atropine ([…]) to the trachea. […]

Molecules are shown by their SMILES. “Also recorded” adds a separate entry of the source.

With `CN1[C@@H]2CC[C@H]1C[C@@H](OC(=O)C(CO)c1ccccc1)C2` (stereo partly shown) [atropine], the “baseline airway smooth muscle tone” value was “decrease in baseline airway smooth muscle tone; also recorded: Inhibition of guinea pig airway smooth muscle tone”.
